We go through 20 compounds from patent EP4800015A1, “AZABICYCLO DERIVATIVE AND PREPARATION METHOD THEREFOR, AND USE” (Zhejiang Hisun Pharmaceutical Co., Ltd., priority 2023, dated 2025).

In the assay the target is T1, recombinant human WRN (Homo sapiens, UniProt Q14191).
T1 construct: purchased BPS 101264
Put plainly: Inhibition of WRN enzyme activity (ATPase), ADP-Glo Kinase Assay. It counts as biochemical. The settings on record: WRN protein 5 nM, Flap 0.1 nM, ATP 30 µM. In a few lines: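 ATPase activity was measured by ADP-Glo luminescence after a 10-min room-temperature reaction with 30 µM ATP and 0.1 nM Flap26 oligonucleotide substrate. The 5 nM WRN had first been exposed to compound (0.004–1000 nM) for 15 min in pH 7.5 Tris buffer with 2 mM MgCl2. IC50 values came from log-concentration regression against the DMSO control.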
(In general: ADP-Glo turns the ADP formed in a reaction into a luminescent signal.)

Like-named read-outs stand apart in the source and are kept apart here. A value given as a limit tells only on which side of the number the result lay.

T1 sequence (Q14191 whole entry): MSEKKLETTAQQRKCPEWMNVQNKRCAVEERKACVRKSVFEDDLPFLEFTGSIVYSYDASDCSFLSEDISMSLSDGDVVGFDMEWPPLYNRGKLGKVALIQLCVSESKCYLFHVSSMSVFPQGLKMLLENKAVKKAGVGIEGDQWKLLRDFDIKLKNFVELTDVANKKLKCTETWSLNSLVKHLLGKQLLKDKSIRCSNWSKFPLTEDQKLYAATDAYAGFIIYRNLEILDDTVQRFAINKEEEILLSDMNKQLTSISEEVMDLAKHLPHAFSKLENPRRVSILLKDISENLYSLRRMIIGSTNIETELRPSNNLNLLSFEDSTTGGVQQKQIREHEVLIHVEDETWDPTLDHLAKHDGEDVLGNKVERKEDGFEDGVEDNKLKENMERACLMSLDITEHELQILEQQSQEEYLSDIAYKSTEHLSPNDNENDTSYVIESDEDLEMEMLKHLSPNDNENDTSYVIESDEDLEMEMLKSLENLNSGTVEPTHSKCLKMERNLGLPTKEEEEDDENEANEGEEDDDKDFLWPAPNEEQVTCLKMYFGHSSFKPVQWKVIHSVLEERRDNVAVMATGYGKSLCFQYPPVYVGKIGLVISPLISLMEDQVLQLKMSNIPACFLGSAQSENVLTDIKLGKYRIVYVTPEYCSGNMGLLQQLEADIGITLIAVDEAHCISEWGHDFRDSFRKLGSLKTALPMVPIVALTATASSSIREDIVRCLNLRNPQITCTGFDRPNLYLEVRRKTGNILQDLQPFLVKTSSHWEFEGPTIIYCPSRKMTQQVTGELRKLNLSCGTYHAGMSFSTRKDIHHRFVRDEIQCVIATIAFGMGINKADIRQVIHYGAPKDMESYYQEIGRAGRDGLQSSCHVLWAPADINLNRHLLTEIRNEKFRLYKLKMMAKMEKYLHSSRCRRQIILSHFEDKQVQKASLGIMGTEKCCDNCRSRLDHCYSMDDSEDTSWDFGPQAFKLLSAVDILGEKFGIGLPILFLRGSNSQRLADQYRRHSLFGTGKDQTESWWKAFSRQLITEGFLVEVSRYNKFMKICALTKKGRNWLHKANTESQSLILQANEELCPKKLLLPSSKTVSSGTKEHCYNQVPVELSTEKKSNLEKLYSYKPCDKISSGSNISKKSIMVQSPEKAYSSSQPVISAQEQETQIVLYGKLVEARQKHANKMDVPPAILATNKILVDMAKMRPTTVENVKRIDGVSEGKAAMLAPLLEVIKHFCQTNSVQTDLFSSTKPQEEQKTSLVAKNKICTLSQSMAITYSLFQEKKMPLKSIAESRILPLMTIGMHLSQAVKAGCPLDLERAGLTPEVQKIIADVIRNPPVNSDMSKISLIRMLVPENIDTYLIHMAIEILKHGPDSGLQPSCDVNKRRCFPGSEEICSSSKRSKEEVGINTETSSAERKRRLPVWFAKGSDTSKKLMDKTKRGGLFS

As for `CCc1c(N2CCN(C(=O)c3ncnc(C)c3O)CC2)c(=O)n2nc(C3=CC4C/C(=N/OC)CC4C3)nc2n1CC(=O)Nc1ccc(C(F)(F)F)cc1Cl` (centres unmarked) [Example 122, (E)-N-(2-chloro-4-(trifluoromethyl)phenyl)-2-(5-ethyl-6-(4-(5-hydroxy-6-methylpyrimidine-4-carbonyl)piperazin-1-yl)-2-(5-(methoxyimino)-1,3a,4,5,6,6a-hexahydropentalen-2-yl)-7-oxo-[1,2,4]triazolo[1,5-a]pyrimidin-4(7H)-yl)acetamide], under “read-out: IC50”, the IC50 was in the range of 1 to 100 nM.
Take `CCc1c(N2CCN(C(=O)c3ncnc(C)c3O)CC2)c(=O)n2nc(C3=C[C@H]4C[C@H]4C3)nc2n1CC(=O)Nc1ccc(S(F)(F)(F)(F)F)cc1` [Example 196, 2-(2-((1S,5S)-bicyclo[3.1.0]hex-2-en-3-yl)-5-ethyl-6-(4-(5-hydroxy-6-methylpyrimidine-4-carbonyl)piperazin-1-yl)-7-oxo-[1,2,4]triazolo[1,5-a]pyrimidin-4(7H)-yl)-N-(4-(pentafluoro-λ6-sulfaneyl)phenyl)acetamide]: the IC50 lay in the range of 1 to 100 nM.
Regarding `CCc1c(N2CCN(C(=O)c3ccncc3O)CC2)c(=O)n2nc(C3=CCCCCC3)nc2n1CC(=O)Nc1ccc(C(F)(F)F)cc1Cl` [Example 9, N-(2-chloro-4-(trifluoromethyl)phenyl)-2-(2-(cyclohept-1-en-1-yl)-5-ethyl-6-(4-(3-hydroxyisonic otinoyl)piperazin-1-yl)-7-oxo-[1,2,4]triazolo[1,5-a]pyrimidin-4(7H)-yl)acetamide], for the setting “read-out: IC50”, the IC50 is less than 1 nM.
On the same count and under the same terms, for `CCc1c(N2CCN(C(=O)c3ccncc3O)CC2)c(=O)n2nc(C3=CCCCCC3)nc2n1CC(=O)Nc1ccc(S(F)(F)(F)(F)F)cc1` [Example 25, 2-(2-(cyclohept-1-en-1-yl)-5-ethyl-6-(4-(3-hydroxyisonicotinoyl)piperazin-1-yl)-7-oxo-[1,2,4]triazolo[1,5-a]pyrimidin-4(7H)-yl)-N-(4-(pentafluoro-λ^6-sulfaneyl)phenyl)acetamide] the value was 1 to 100 nM.
Still for that read-out and setting: for `CCc1c(N2CCN(C(=O)c3ncccc3O)CC2)c(=O)n2nc(C3=Cc4ccccc4C3)nc2n1CC(=O)Nc1ccc(C(F)(F)F)cc1Cl` [Example 72, N-(2-chloro-4-(trifluoromethyl)phenyl)-2-(5-ethyl-6-(4-(3-hydroxypicolinoyl)piperazin-1-yl)-2-(1H-inden-2-yl)-7-oxo-[1,2,4]triazolo[1,5-a]pyrimidin-4(7H)-yl)acetamide] the value was 1 to 100 nM; for `CCc1c(N2CCN(C(=O)c3ncnc(C)c3O)CC2)c(=O)n2nc(N3CCCCCC3)nc2n1CC(=O)Nc1ccc(C(F)(F)F)cc1Cl` [Example 3, 2-(2-(Azepan-1-yl)-5-ethyl-6-(4-(5-hydroxy-6-methylpyrimidine-4-carbonyl)piperazin-1-yl)-7-oxo-[1,2,4]triazolo[1,5-a]pyrimidin-4(7H)-yl)-N-(2-chloro-4-(trifluoromethyl)phenyl)acetamide], 1 to 100 nM; for `CCc1c(N2CCC(NC(=O)c3ncnc(C)c3O)CC2)c(=O)n2nc(-c3ccc4c(c3)CCO4)nc2n1CC(=O)Nc1ccc(C(F)(F)F)cc1Cl` [Example 108, N-(1-(4-(2-((2-chloro-4-(trifluoromethyl)phenyl)amino)-2-oxoethyl)-2-(2,3-dihydrobenzofuran-5-yl)-5-ethyl-7-oxo-4,7-dihydro-[1,2,4]triazolo[1,5-a]pyrimidin-6-yl)piperidin-4-yl)-5-hydroxy-6-methylpyrimidine-4-carboxamide], 1 to 100 nM.
Still for that read-out and setting: for `CCc1c(N2CCN(C(=O)c3ncnc(C)c3O)CC2)c(=O)n2nc(C3=CCCCCC3)nc2n1CC(=O)Nc1ccc(OC(F)(F)F)cc1` [Example 95, 2-(2-(cyclohept-1-en-1-yl)-5-ethyl-6-(4-(5-hydroxy-6-methylpyrimidine-4-carbonyl)piperazin-1-yl)-7-oxo-[1,2,4]triazolo[1,5-a]pyrimidin-4(7H)-yl)-N-(4-(trifluoromethoxy)phenyl)acetamide] the value was less than 1 nM; for `CCc1c(N2CCN(C(=O)c3ncnc(C)c3O)CC2)c(=O)n2nc(C3CCCCCC3)nc2n1CC(=O)Nc1ccc(C(F)(F)F)cc1Cl` [Example 4, N-(2-chloro-4-(trifluoromethyl)phenyl)-2-(2-cycloheptyl-5-ethyl-6-(4-(5-hydroxy-6-methylpyrimidine-4-carbonyl)piperazin-1-yl)-7-oxo-[1,2,4]triazolo[1,5-a]pyrimidin-4(7H)-yl)acetamide], 1 to 100 nM.
As to `CCc1c(N2CCN(C(=O)c3ncnc(C)c3O)CC2)c(=O)n2nc(NCCCCl)nc2n1CC(=O)Nc1ccc(C(F)(F)F)cc1Cl` [Example 15, N-(2-chloro-4-(trifluoromethyl)phenyl)-2-(2-((3-chloropropyl)amino)-5-ethyl-6-(4-(5-hydroxy-6-methylpyrimidine-4-carbonyl)piperazin-1-yl)-7-oxo-[1,2,4]triazolo[1,5-a]pyrimidin-4(7H)-yl)ace tamide], the IC50 (read-out: IC50) is 1 to 100 nM.
Still for that read-out and setting: for `CCc1c(N2CCN(C(=O)c3ncnc(C)c3O)CC2)c(=O)n2nc(/C=C/c3ccccn3)nc2n1CC(=O)Nc1ccc(C(F)(F)F)cc1Cl` [Example 37, (E)-N-(2-chloro-4-(trifluoromethyl)phenyl)-2-(5-ethyl-6-(4-(5-hydroxy-6-methylpyrimidine-4-carbonyl)piperazin-1-yl)-7-oxo-2-(2-(pyridin-2-yl)vinyl)-[1,2,4]triazolo[1,5-a]pyrimidin-4(7H)-yl)a cetamide] the value was 1 to 100 nM.
Consider `CCc1c(N2CCN(C(=O)c3ncnc(C)c3O)CC2)c(=O)n2nc(-c3ccc4sc(C)nc4c3)nc2n1CC(=O)Nc1ccc(C(F)(F)F)cc1Cl` [Example 110, N-(2-chloro-4-(trifluoromethyl)phenyl)-2-(5-ethyl-6-(4-(5-hydroxy-6-methylpyrimidine-4-carbonyl)piperazin-1-yl)-2-(2-methylbenzo[d]thiazol-5-yl)-7-oxo-[1,2,4]triazolo[1,5-a]pyrimidin-4(7H)-yl)acetamide], for which the IC50 (read-out: IC50) lay in the range of 1 to 100 nM.
On the same count and under the same terms, for `CCc1c(N2CCN(C(=O)c3ncnc(C)c3O)CC2)c(=O)n2nc(-c3ccc4c(c3)OCC4)nc2n1CC(=O)Nc1ccc(S(F)(F)(F)(F)F)cc1` [Example 58, 2-(2-(2,3-dihydrobenzofuran-6-yl)-5-ethyl-6-(4-(5-hydroxy-6-methylpyrimidine-4-carbonyl)piperazin-1-yl)-7-oxo-[1,2,4]triazolo[1,5-a]pyrimidin-4(7H)-yl)-N-(4-(pentafluoro-λ^6-sulfaneyl)phenyl)acetamide] the value was 1 to 100 nM; for `CCc1c(N2CCN(C(=O)c3ncnc(C)c3O)CC2)c(=O)n2nc(/C=C(\C)C3CC3)nc2n1CC(=O)Nc1ccc(C(F)(F)F)cc1Cl` [Example 36, (E)-N-(2-chloro-4-(trifluoromethyl)phenyl)-2-(2-(2-cyclopropylprop-1-en-1-yl)-5-ethyl-6-(4-(5-hydroxy-6-methylpyrimidine-4-carbonyl)piperazin-1-yl)-7-oxo-[1,2,4]triazolo[1,5-a]pyrimidin-4(7H)-yl)acetamide], 1 to 100 nM; for `CCc1c(N2CCN(C(=O)c3ncnc(C)c3O)CC2)c(=O)n2nc(C3=CC4CNCC4C3)nc2n1CC(=O)Nc1ccc(S(F)(F)(F)(F)F)cc1` (centres unmarked) [Example 146, 2-(5-Ethyl-2-(1,2,3,3a,4,6a-hexahydrocyclopenta[c]pyrrol-5-yl)-6-(4-(5-hydroxy-6-methylpyrimidine-4-carbonyl)piperazin-1-yl)-7-oxo-[1,2,4]triazolo[1,5-a]pyrimidin-4(7H)-yl)-N-(4-(pentafluoro-λ^6-sulfaneyl)phenyl)acetamide], 1 to 100 nM.
For the compound `CCc1c(N2CCN(C(=O)c3ncnc(C)c3O)CC2)c(=O)n2nc(N3CCC3)nc2n1CC(=O)Nc1ccc(C(F)(F)F)cc1Cl` [Example 7, 2-(2-(azetidin-1-yl)-5-ethyl-6-(4-(5-hydroxy-6-methylpyrimidine-4-carbonyl)piperazin-1-yl)-7-oxo-[1,2,4]triazolo[1,5-a]pyrimidin-4(7H)-yl)-N-(2-chloro-4-(trifluoromethyl)phenyl)acetamide], where the note is “read-out: IC50”, the IC50 was 1 to 100 nM.
On the same count and under the same terms, for `CCc1c(N2CCN(C(=O)c3ncnc(C)c3O)CC2)c(=O)n2nc(-c3ccc4scnc4c3)nc2n1CC(=O)Nc1ccc(C(F)(F)F)cc1Cl` [Example 100, 2-(2-(benzo[d]thiazol-5-yl)-5-ethyl-6-(4-(5-hydroxy-6-methylpyrimidine-4-carbonyl)piperazin-1-yl)-7-oxo-[1,2,4]triazolo[1,5-a]pyrimidin-4(7H)-yl)-N-(2-chloro-4-(trifluoromethyl)phenyl)acetamide] the value was 1 to 100 nM; for `CCc1c(N2CCN(C(=O)c3ncnc(C)c3O)CC2)c(=O)n2nc(C=C3CCCCC3)nc2n1CC(=O)Nc1ccc(C(F)(F)F)cc1Cl` [Example 20, N-(2-chloro-4-(trifluoromethyl)phenyl)-2-(2-(cyclohexylidenemethyl)-5-ethyl-6-(4-(5-hydroxy-6-methylpyrimidine-4-carbonyl)piperazin-1-yl)-7-oxo-[1,2,4]triazolo[1,5-a]pyrimidin-4(7H)-yl)ac etamide], 1 to 100 nM.
Still for that read-out and setting: for `CCc1c(N2CCN(C(=O)c3ncnc(C)c3O)CC2)c(=O)n2nc(C3=CCCCCC3)nc2n1CC(=O)Nc1ccc(C(C)(C)C)cc1` [Example 26, N-(4-(tert-Butyl)phenyl)-2-(2-(cyclohept-1-en-1-yl)-5-ethyl-6-(4-(5-hydroxy-6-methylpyrimidine-4-carbonyl)piperazin-1-yl)-7-oxo-[1,2,4]triazolo[1,5-a]pyrimidin-4(7H)-yl)acetamide] the value was 1 to 100 nM.
Same read-out and setting: for `CCc1c(N2CCN(C(=O)c3ncncc3O)CC2)c(=O)n2nc(C3=CC4COCC4C3)nc2n1CC(=O)Nc1ccc(C(F)(F)F)cc1Cl` (centres unmarked) [Example 160, N-(2-chloro-4-(trifluoromethyl)phenyl)-2-(5-ethyl-6-(4-(5-hydroxypyrimidine-4-carbonyl)piperazin-1-yl)-7-oxo-2-(3,3a,4,6a-tetrahydro-1H-cyclopenta[c]furan-5-yl)-[1,2,4]triazolo[1,5-a]pyrimidin-4(7H)-yl)acetamide] the value was 1 to 100 nM.

As usually defined, the IC50 is the point on the concentration scale where inhibition reaches its midpoint.
